Measured values published in patent US20120128607A1, “EXTRACT OF WHOLE SEEDS OF MORNINGA SP, AND USE THEREOF IN COSMETIC AND/OR DERMATOLOGICAL COMPOSITIONS” (PIERRE FABRE DERMO-COSMETIQUE, priority 2009, published 2012).

Columns and labels:
[1] = system: ABC G1; assay: Model of differentiation of normal human keratinocytes: gene expression (mRNA) of ABC G1; assay type: cell-based; settings: NHK, with respect to non-treated cells
Text: (§1) First, the effects of extracts according to the invention have first been studied from a model of differentiated normal human keratinocytes (NHK).
(§2) The effect of the extracts of Moringa sp. on the gene expression of different proteins involved in the synthesis or the transport of the epidermal lipids, ABC G1 and hDES2, has been analyzed.
(§3) The results are expressed in percentage of stimulation of the gene expression (mRNA) of different markers of the epidermal differentiation expressed by the NHKs (with respect to the non-treated cells). A significant positive effect is considered from 100% of stimulation.

[2] = system: hDES2; assay: Model of differentiation of normal human keratinocytes: gene expression (mRNA) of hDES2; assay type: cell-based; settings: NHK, with respect to non-treated cells
Text: as §1, §2, §3

[3] = DPPH test (antioxidant activity); settings: methanolic solution of DPPH at 0.06 mM, absorption at 517 nm
Text: The antioxidant activity of the seed extract of Moringa oleifera according to the present invention has been evaluated with the DPPH test. This test is based on the measure of the capacity for trapping antioxidants of the stable radical 2.2-diphenyl-1-picrylhydrazyl (DPPH). This stable radical, having absorption at 517 nm, is reduced to the corresponding hydrazine when it reacts with a hydrogen donor.
The results obtained are expressed in IC50, corresponding to the concentration giving 50% reduction in absorbance of a methanolic solution of DPPH at 0.06 mM.

**Q.** What does the source list for `C=C1CC[C@H](O)C/C1=C/C=C1\CCC[C@]2(C)[C@@H]([C@H](C)CCCC(C)C)CC[C@@H]12` [Vit D3, vitamin D3]?
**A.** percentage of stimulation of the gene expression (mRNA) of ABC G1 ([1]; 5 μM): 170%; percentage of stimulation of the gene expression (mRNA) of hDES2 ([2]; 5 μM): 780%

**Q.** For `CN(CCOc1ccc(CC2SC(=O)NC2=O)cc1)c1ccccn1` (centres unmarked) [Roziglitazone, roziglitazone], which “percentage of stimulation of the gene expression (mRNA) of ABC G1” value ([1]; 10 μM) is on record?
**A.** The value was 330%.

**Q.** And the “percentage of stimulation of the gene expression (mRNA) of hDES2” value ([2]; 10 μM)?
**A.** Its value is 190%.

**Q.** Which “IC50 (concentration giving 50% reduction in absorbance of DPPH solution)” value [3] does the source give for Vitamin E here?
**A.** Its value is 6 to 10 mg/L.
